Our source for the GI50 and TGI values is PubChem BioAssay (NCI).

The structures appear in SMILES notation.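 Results reflect a 48-hour exposure of cells in 96-well plates to compound at five concentrations. At the GI50, growth is halved. TGI marks complete inhibition of growth.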

What all share (assay): inhibition of tumour cell growth, NCI panel, 48 h
For assay [1], the system named is CAKI-1 renal.
In assay [2] the test system is M14 melanoma.
For assay [3], the system named is SK-OV-3 ovarian.
Assay [4] deals with SF-295 CNS.
For assay [5], the system named is MALME-3M melanoma.
Assay [6] has as its system MDA-MB-231 breast.
The test system of assay [7] is IGROV1 ovarian.
The subject of assay [8] is UACC-62 melanoma.
Assay [9] concerns BT-549 breast.
For assay [10], the system named is HOP-92 NSCLC.
Assay [11] concerns TK-10 renal.
The test system of assay [12] is PC-3 prostate.
For assay [13], the system named is NCI/ADR-RES ovarian.
Assay [14] has as its system A498 renal.
The test system of assay [15] is DU-145 prostate.
The test system of assay [16] is UO-31 renal.
The subject of assay [17] is SF-539 CNS.
In assay [18] the test system is NCI-H226 lung.
Assay [19] concerns UACC-257 melanoma.
The subject of assay [20] is NCI-H23 lung.

In the case of `O=C1c2[nH]cc(CN[C@@H]3CCCN3)c2C(=O)c2c1c(O)c1ccccc1c2O`, the GI50 in assay [1] was 0.927 µM; in assay [2], 1.58 µM; in assay [3], 0.583 µM; in assay [4], 0.288 µM; in assay [5], 1.59 µM; in assay [6], 0.527 µM. In addition, the GI50 in [7] is 0.262 µM; in assay [8], 1.29 µM; in assay [9], 4.67 µM; in [10] it was 0.19 µM; in assay [11], 1.07 µM; in assay [12] it was 0.358 µM. Moreover, the GI50 in assay [13] was 3.88 µM; in assay [14] it was 0.544 µM; in assay [15] it was 0.786 µM; in assay [16], 0.261 µM; in assay [17], 1.36 µM. In addition, the TGI in [1] is 2.87 µM; in [2], 3 µM; in [3], 1.78 µM; in assay [4] it was 1.25 µM; in [5], 3.07 µM; in [6] it was 1.84 µM. In addition, the TGI in [7] was found to be 1.02 µM; in assay [8], 2.58 µM; in assay [9], 38.4 µM; in assay [10], 1.65 µM; in assay [11] it was 2.29 µM; in [12], 1.51 µM. The TGI in assay [13] amounted to 30.6 µM; in [14], 16.3 µM; in assay [15], 2.04 µM; in assay [16], 1.52 µM; in assay [17], 2.67 µM.

Regarding `CO/N=C1\CC(C)N2C(=O)C(C(C)C)NC(=O)C(NC(=O)c3c4nc5c(C(=O)NC6C(=O)NC(C(C)C)C(=O)N7C(C)CC(O)C7C(=O)N(C)CC(=O)N(C)C(C(C)C)C(=O)OC6C)ccc(C)c5oc-4c(C)c(=O)c3N)C(CO)OC(=O)C(C)N(C)C(=O)CN(C)C(=O)C12` (centres undefined), the TGI was 3.81 µM in assay [18]; 17 µM in [9]; 4.31 µM in [19]; 16.9 µM in assay [10]; 14.5 µM in [20].
